In the case of `S=C([S-])NCCNC(=S)[S-].S=C([S-])NCCNC(=S)[S-].[Mn+2].[Zn+2]`, the flash point was determined as 138.00 °C.
The value for `S=C([S-])NCCNC(=S)[S-].[Mn+2]` was 138.00 °C; that for `NCCNCCNCCNCCN` was 163.00 °C; that for `Cl.O=C(O)CCP(CCC(=O)O)CCC(=O)O` was 202.00 °C.
With `O=C1OC(=O)c2cccc3cccc1c23` the figure was 272.00 °C.
As to `O=P1(N(CCCl)CCCl)NCCCO1` (stereo unspecified), the flash point came out at 113.00 °C.
Molecule `C=C1C(CCl)(CCl)C2(Cl)C(Cl)C(Cl)C1(Cl)C2(Cl)Cl` (stereo unspecified) returned a flash point of 29.00 °C.
With `C=C1CCC=C(C)CC[C@@H]2[C@@H]1CC2(C)C` the figure was 101.00 °C; with `CC(C)(C)c1cc(CCC(=O)OCC(COC(=O)CCc2cc(C(C)(C)C)c(O)c(C(C)(C)C)c2)(COC(=O)CCc2cc(C(C)(C)C)c(O)c(C(C)(C)C)c2)COC(=O)CCc2cc(C(C)(C)C)c(O)c(C(C)(C)C)c2)cc(C(C)(C)C)c1O`, 297.00 °C.
With `CC(C)(c1ccc(OC[C@@H]2CO2)cc1)c1ccc(OC[C@@H]2CO2)cc1` the figure was 79.00 °C.
The value for `CC(C)=CCC/C(C)=C\CC/C(C)=C/CC/C=C(\C)CC/C=C(\C)CCC=C(C)C` was 110.00 °C; that for `CC(C)C(=O)OCC(C)(C)C(OC(=O)C(C)C)C(C)C` (stereo unspecified) was 121.00 °C.
In turn, `CC(C)Nc1nc(Cl)nc(NC2CC2)n1` yielded a flash point of 163.00 °C.
With `CC(C)[C@H](C(=O)O[C@H](C#N)c1cccc(Oc2ccccc2)c1)c1ccc(Cl)cc1`, the flash point was found to be 256.00 °C.
With `CC1(C)C2CCC1(C)C(OC(=O)CSC#N)C2` (stereo unspecified) the figure was 82.00 °C; with `Cc1c(COC(=O)C2C(C=C(Cl)C(F)(F)F)C2(C)C)cccc1-c1ccccc1` (stereo unspecified), 165.00 °C; with `CC1=C(C(=O)Nc2ccccc2)S(=O)(=O)CCO1`, 219.00 °C.
With `Cc1cc(O)c(C(C)(C)C)cc1Sc1cc(C(C)(C)C)c(O)cc1C` the figure was 216.00 °C; with `C=Cc1ccc(C)cc1.C=Cc1cccc(C)c1.C=Cc1ccccc1C`, 52.00 °C.
With `CC1=C[C@H]2C(=O)O[C@H]3C[C@@H](C/C=C(\C)C[C@@H](C)/C=C/C=C4\CO[C@H]([C@@H]1O)[C@@]42O)O[C@@]1(CC[C@H](C)[C@@H](C)O1)C3` the figure was 43.00 °C; with `C=C(C)C1CCC2=CC(=O)CC(C)C2(C)C1` (stereo unspecified), 100.00 °C; with `CCC1CCC(CCC(=O)[O-])C1.CCC1CCC(CCC(=O)[O-])CC1.[Cu+2]` (stereo unspecified), 38.00 °C.
As to `CCCCC(CC)Cc1c(C(=O)OOOC(=O)c2cc(O)c(O)c(O)c2)cc(O)c(O)c1O` (stereo unspecified), the flash point is 232.00 °C.
`CCCCCC1OC1CC1OC1CCCCCCCC(=O)OCC(COC(=O)CCCCCCCC1OC1CC1OC1CCCCC)OC(=O)CCCCCCCC1OC1CC1OC1CCCCC` (stereo unspecified): the flash point is 307.00 °C.
The value for `CCCCCCCCCc1ccc(OCCOCCOCCOCCOCCOCCOCCOCCOCCO)cc1` was 197.00 °C; that for `CCCCOC(=O)COC(=O)c1ccccc1C(=O)OCCCC` was 199.00 °C.
With `CCCNCC(O)COc1ccccc1C(=O)CCc1ccccc1` (stereo unspecified) the figure was 199.00 °C; with `CCCOP(=S)(OCCC)OP(=S)(OCCC)OCCC`, 149.00 °C.
With `CCOP(=S)(OCC)Oc1cc(C)nc(N(CC)CC)n1` the figure was 113.00 °C.
For the molecule `CCOP(=S)(OCC)Oc1ccc([N+](=O)[O-])cc1`, the flash point turned out to be 120.00 °C.
The value for `CCOP(=S)(OCC)Oc1nc(Cl)c(Cl)cc1Cl` was 28.00 °C.
Molecule `CCOP(=S)(OCC)SCSC(C)(C)C` came in with a flash point of 88.00 °C.
With `CCSC(C)CC1CC(=O)C(/C(CC)=N/OC/C=C/Cl)=C(O)C1` (stereo unspecified) the figure was 72.00 °C.
The value for `COc1ccc2c3c1OC1C(O)C=CC4C(C2)N(C)CCC341` (stereo unspecified) was 75.00 °C; that for `COC(C)(C)CCCC(C)C/C=C/C(C)=C/C(=O)OC(C)C` (stereo unspecified) was 187.00 °C; that for `COP(=O)(OC)OC1=C(Cl)C2C=CCC12` (stereo unspecified) was 165.00 °C.
With `COP(=S)(OC)Oc1nc(Cl)c(Cl)cc1Cl` the figure was 182.00 °C; with `COc1cc(CNC(=O)CCCC/C=C/C(C)C)ccc1O`, 113.00 °C.
The molecule `C[Si]1(C)O[Si](C)(C)O[Si](C)(C)O[Si](C)(C)O[Si](C)(C)O1` displayed a flash point of 73.00 °C.
In turn, `Cc1nn(C)c(Oc2ccccc2)c1/C=N/OCc1ccc(C(=O)OC(C)(C)C)cc1` returned a flash point of 85.00 °C.
`O=C(OC[C@H]1O[C@@H](OC(=O)c2cc(O)c(O)c(OC(=O)c3cc(O)c(O)c(O)c3)c2)[C@H](OC(=O)c2cc(O)c(O)c(OC(=O)c3cc(O)c(O)c(O)c3)c2)[C@@H](OC(=O)c2cc(O)c(O)c(OC(=O)c3cc(O)c(O)c(O)c3)c2)[C@@H]1OC(=O)c1cc(O)c(O)c(OC(=O)c2cc(O)c(O)c(O)c2)c1)c1cc(O)c(O)c(OC(=O)c2cc(O)c(O)c(O)c2)c1` returned a flash point of 199.00 °C.
The value for `O=c1[nH]cnc2c1ncn2[C@H]1C[C@H](O)[C@@H](COP(=O)(O)OP(=O)(O)O)O1` was 229.00 °C; that for `OC[C@H]1O[C@@H](OC/C=C/c2ccccc2)[C@H](O)[C@@H](O)[C@@H]1O` was 187.00 °C.
With `c1ccc(-c2ccccc2)cc1.c1ccc(Oc2ccccc2)cc1` [1,1'-biphenyl;phenoxybenzene] the figure was 124.00 °C; with `ClC(Cl)=C(Cl)C(Cl)=C(Cl)Cl` [1,1,2,3,4,4-hexachlorobuta-1,3-diene], 90.00 °C.
As to `CCCCC(Cl)Cl` [1,1-dichloropentane], the flash point amounted to 41.00 °C.
The molecule `N=C(N)N(c1ccccc1)c1ccccc1` [1,1-diphenylguanidine] showed a flash point of 170.00 °C.
`C1CCC2CCCCC2C1` (stereo unspecified) [1,2,3,4,4a,5,6,7,8,8a-decahydronaphthalene] had a flash point of 57.00 °C.
With `Cc1cc(C)c(C)c(C)c1` [1,2,3,5-tetramethylbenzene] the figure was 63.00 °C.
With `Clc1cccc(Cl)c1Cl` [1,2,3-trichlorobenzene] the figure was 112.00 °C; with `Cc1cc(C)c(C)cc1C` [1,2,4,5-tetramethylbenzene], 54.00 °C; with `Clc1ccc(Cl)c(Cl)c1` [1,2,4-trichlorobenzene], 110.00 °C.
The value for `Cc1ccc(C)c(C)c1` [1,2,4-trimethylbenzene] was 44.00 °C; that for `C=Cc1ccccc1C=C` [1,2-bis(ethenyl)benzene] was 62.00 °C; that for `ClCC(Br)CBr` (stereo unspecified) [1,2-dibromo-3-chloropropane] was 77.00 °C.
Take `Clc1ccc(-c2cccc(Cl)c2Cl)c(Cl)c1` [1,2-dichloro-3-(2,4-dichlorophenyl)benzene]: the flash point stood at 141.00 °C.
For `FC(F)(F)c1ccc(Cl)c(Cl)c1` [1,2-dichloro-4-(trifluoromethyl)benzene], the flash point stood at 65.00 °C.
`ClC=CCl` [1,2-dichloroethene] registered a flash point of 4.00 °C.
In the case of `CCc1ccccc1CC` [1,2-diethylbenzene], the flash point was found to be 57.00 °C.
The value for `c1cc2c3c(cccc3c1)CC2` [1,2-dihydroacenaphthylene] was 125.00 °C; that for `O=c1ccc(=O)[nH][nH]1` [1,2-dihydropyridazine-3,6-dione] was 300.00 °C.
`C=CCc1ccc(OC)c(OC)c1` [1,2-dimethoxy-4-prop-2-enylbenzene] gave a flash point of 99.00 °C.
With `Cc1ccc([N+](=O)[O-])cc1C` [1,2-dimethyl-4-nitrobenzene] the figure was 107.00 °C; with `NC(=Nc1ccccc1)Nc1ccccc1` [1,2-diphenylguanidine], 198.00 °C.
The value for `Cc1ccc(C)cc1.Cc1cccc(C)c1.Cc1ccccc1C` [1,2-xylene;1,3-xylene;1,4-xylene] was 25.00 °C; that for `Clc1cc(Cl)cc(Cl)c1` [1,3,5-trichlorobenzene] was 107.00 °C.
On to `Clc1cc(Cl)cc(-c2cc(Cl)cc(Cl)c2)c1` [1,3-dichloro-5-(3,5-dichlorophenyl)benzene], for which the flash point turned out to be 141.00 °C.
With `O=[N+]([O-])c1cc(Cl)cc(Cl)c1` [1,3-dichloro-5-nitrobenzene] the figure was 140.00 °C.
The value for `CC(Cl)=CCCl` [1,3-dichlorobut-2-ene] was 27.00 °C; that for `ClCCCCl` [1,3-dichloropropane] was 21.00 °C; that for `CCN(C(=O)N(CC)c1ccccc1)c1ccccc1` [1,3-diethyl-1,3-diphenylurea] was 150.00 °C.
The value for `Cc1cccc(C)c1[N+](=O)[O-]` [1,3-dimethyl-2-nitrobenzene] was 88.00 °C; that for `C1COCOC1` [1,3-dioxane] was 2.00 °C; that for `O=C(O)c1ccc2c(c1)C(=O)OC2=O` [1,3-dioxo-2-benzofuran-5-carboxylic acid] was 227.00 °C.
Consider `O=C1OCCO1` [1,3-dioxolan-2-one], for which the flash point was determined as 143.00 °C.
`c1ccc(-c2cccc(-c3ccccc3)c2)cc1` [1,3-diphenylbenzene]: the flash point worked out at 191.00 °C.
The value for `COc1cc(Cl)c(OC)cc1Cl` [1,4-dichloro-2,5-dimethoxybenzene] was 161.00 °C.
With `O=[N+]([O-])c1cc(Cl)ccc1Cl` [1,4-dichloro-2-nitrobenzene] the figure was 135.00 °C.
In turn, `ClCC=CCCl` [1,4-dichlorobut-2-ene] came in with a flash point of 53.00 °C.
In turn, `ClCCCCCl` [1,4-dichlorobutane] displayed a flash point of 40.00 °C.
Regarding `c1ccc(-c2ccc(-c3ccccc3)cc2)cc1` [1,4-diphenylbenzene], the flash point is 207.00 °C.

The values are drawn from a flash point compilation (Sun et al. 2020).
